Data set [1] is described as follows: In vitro dissolution of amorphous solid dispersions in simulated intestinal fluid at 37° C. The format is physicochemical. As to the method: […] To each vial was added simulated intestinal fluid (5 mL) and each was shaken at 37° C. […] The samples were then diluted in MeOH and tested using UV method for solution concentration.
A short description of data set [2]: Equilibrium solubility in SIF. The format is physicochemical. To be noted: for solubility: simulated intestinal fluid (SIF), 37 °C, pH 6.8, fassgf or other biorelevant, thermodynamic from solid, read-out: Eq. Solubility of active. As to the method:
Solutions were placed at 37° C., and sample aliquots were removed at 24, 48, 72, & 96 hours. Sample aliquots were filtered (0.45 uM PVDF), diluted in SIF/MeOH and measured in triplicate on UV spectrometer.

Setting [3] is: 12% load analog in PVP K-30 amorphous dispersion, target conc 2 mg/mL, SIF 37° C., t = 5 min.
Where [4] appears, read: 12% load analog in PVP K-30 dispersion, SIF 37° C., t = 5 min.

Values after ≈ are worked out from the molar mass of the structure shown. Like-named read-outs stand apart in the source and are kept apart here. A value given as a limit tells only on which side of the number the result lay.

On to `CO[C@H]1/C=C\C=C(/C)C(=O)NC2=CC(=O)C(N3CCC3)=C(C[C@@H](C)C[C@H](OC)[C@H](O)[C@@H](C)/C=C(\C)[C@@H]1OC(N)=O)C2=O` [17-azetidinyl-G, 17-azetidinylgeldanamycin], for which the “Supersaturated concentration of analog/polymer dispersions in SIF at 37° C. (t = 5 min)” value in data set [1] (setting [3]) is given as 0.167 mg/ml. Also, the “Fold increase relative to equilibrium solubility” value in data set [1] (setting [4]) is listed as 0 x. Further, in data set [2], the solubility – broadly, the concentration that dissolves in the medium under given conditions – is 140 µg/mL (≈ 239 µM).

For `CO[C@H]1/C=C\C=C(/C)C(=O)NC2=CC(=O)C(NC(C)=O)=C(C[C@@H](C)C[C@H](OC)[C@H](O)[C@@H](C)/C=C(\C)[C@@H]1OC(N)=O)C2=O` [17-acetyl-AG, 17-acetylgeldanamycin], the “Supersaturated concentration of analog/polymer dispersions in SIF at 37° C. (t = 5 min)” value in data set [1] (setting [3]) is on record as 1.568 mg/ml. In addition, in data set [1] (setting [4]), the “Fold increase relative to equilibrium solubility” value is at least 5 x. The solubility in data set [2] is 350 µg/mL (≈ 596 µM).

As for `CO[C@H]1C[C@H](C)CC2=C(N)C(=O)C=C(NC(=O)/C(C)=C/C=C\[C@H](OC)[C@@H](OC(N)=O)/C(C)=C/[C@H](C)C1OC(C)=O)C2=O` (stereo partly drawn) [11-acetyl-17-AG, 11-acetyl-17-aminogeldanamycin], the “Supersaturated concentration of analog/polymer dispersions in SIF at 37° C. (t = 5 min)” value in data set [1] (setting [3]) was 0.167 mg/ml. The “Fold increase relative to equilibrium solubility” value in data set [1] (setting [4]) is reported as 2 x. In data set [2], the solubility is 88 µg/mL (≈ 150 µM).

As to `COC1CC(C)CC2=C(N)C(=O)C=C(NC(=O)C(C)=CC=CC(OC)C(OC(N)=O)C(C)=CC(C)C1=O)C2=O` (stereo not drawn) [11-oxo-17-AG, 11-oxo-17-aminogeldanamycin], the “Supersaturated concentration of analog/polymer dispersions in SIF at 37° C. (t = 5 min)” value in data set [1] (setting [3]) is given as 0.395 mg/ml. Moreover, in data set [1] (setting [4]), the “Fold increase relative to equilibrium solubility” value is 0 x. The “Eq. Solubility of active” value in data set [2] (pH 6.8) is 330 µg/mL.

Consider `CO[C@H]1/C=C\C=C(/C)C(=O)NC2=CC(=O)C(NCc3ccccc3)=C(C[C@@H](C)C[C@H](OC)[C@H](O)[C@@H](C)/C=C(\C)[C@@H]1OC(N)=O)C2=O` [17-benzyl-AG, 17-benzylaminogeldanamycin], for which, in data set [1], the “Supersaturated concentration of analog/polymer dispersions in SIF at 37° C. (t = 5 min)” value is 0.165 mg/ml (10x). Also, in data set [1] (12% load analog in PVP K-30 dispersion, SIF 37° C., t = 5 min, the values are: supersaturated concentration in SIF at 5 min), the Supersaturated concentration in SIF at 5 min was 0.165 mg/mL. The solubility in data set [2] is 15 µg/mL (≈ 23.6 µM).

For the compound `CO[C@H]1/C=C\C=C(/C)C(=O)NC2=CC(=O)C(NCCF)=C(C[C@@H](C)C[C@H](OC)[C@H](O)[C@@H](C)/C=C(\C)[C@@H]1OC(N)=O)C2=O` [17-fluoroethyl-AG, 17-(fluoroethyl)aminogeldanamycin], the “Supersaturated concentration of analog/polymer dispersions in SIF at 37° C. (t = 5 min)” value in data set [1] (setting [3]) is listed as 0.234 mg/ml. In addition, the “Fold increase relative to equilibrium solubility” value in data set [1] (setting [4]) is 5 x. The solubility in data set [2] is 40 µg/mL (≈ 67.6 µM).

With `CO[C@H]1/C=C\C=C(/C)C(=O)NC2=CC(=O)C(NCC3CC3)=C(C[C@@H](C)C[C@H](OC)[C@H](O)[C@@H](C)/C=C(\C)[C@@H]1OC(N)=O)C2=O` [17-cyclopropylmethyl-AG, 17-cyclopropylmethylaminogeldanamycin], in data set [1] (setting [3]), the “Supersaturated concentration of analog/polymer dispersions in SIF at 37° C. (t = 5 min)” value is 0.0573 mg/ml. Also, in data set [1] (setting [4]), the “Fold increase relative to equilibrium solubility” value is recorded as 2 x. The solubility in data set [2] was 34 µg/mL (≈ 56.7 µM).

Source of the values: patent publication US8357676B2, “Ansamycin formulations and methods of use thereof” (Infinity Discovery, Inc., priority 2006, dated 2013).
